This assay concerns the target T1, FPR2 (Homo sapiens, UniProt P25090).
T1 construct: expressed in transfected cells; host or cells: CHO-Ga16 cells stably expressing FPR2
T1 sequence (P25090 1-351): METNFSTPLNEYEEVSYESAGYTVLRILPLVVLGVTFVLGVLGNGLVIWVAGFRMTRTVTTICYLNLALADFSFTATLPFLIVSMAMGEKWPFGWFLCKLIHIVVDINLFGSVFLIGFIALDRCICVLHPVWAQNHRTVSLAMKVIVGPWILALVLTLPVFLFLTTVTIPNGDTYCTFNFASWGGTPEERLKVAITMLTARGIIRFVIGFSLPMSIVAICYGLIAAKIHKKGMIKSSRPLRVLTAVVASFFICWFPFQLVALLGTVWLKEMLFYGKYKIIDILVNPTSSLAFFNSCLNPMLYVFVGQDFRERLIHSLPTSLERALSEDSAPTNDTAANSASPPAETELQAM
The assay can be described thus: compound-induced calcium activity on FLIPR Tetra in CHO-Ga16 cells stably expressing FPR2. As to conditions: for Emax: efficacy value given as a fraction, read-out: FPR2 Ga16-CHO (0.% eff) efficacy. It counts as cell-based. As to the method:
CHO-Ga16 cells stably expressing FPR2 were cultured in (F12, 10% FBS, 1% PSA, 400 μg/ml geneticin and 50 μg/ml hygromycin) and HEK-Gqi5 cells stable expressing FPR2 were cultured in (DMEM high glucose, 10% FBS, 1% PSA, 400 μg/ml geneticin and 50 μg/ml hygromycin). In general, the day before the experiment, 18,000 cells/well were placed in a 384-well clear bottom poly-d-lysine coated plate. The following day the screening compound-induced calcium activity was assayed on the FLIPR^Tetra. The drug plates were prepared in 384-well microplates using the EP3 and the MuItiPROBE robotic liquid handling systems. Compounds were tested at concentrations ranging from 0.61 to 10,000 nM. Results are expressed as EC50 (nM) and efficacy values.

[1] abbreviates: CHO-Ga16 cells stably expressing FPR2.
[2] abbreviates: CHO-Ga16 cells stably expressing FPR2, calcium activity, FLIPR Tetra, concentrations 0.61 to 10,000 nM.

Like-named read-outs stand apart in the source and are kept apart here.

For the compound `CCOP(=O)(O)CNC(=O)[C@H](Cc1ccccc1)NC(=O)Nc1ccc(Br)cc1` [Compound 18, Ethyl hydrogen ({[(2S)-2-({[(4-bromophenyl)amino]carbonyl}amino)-3-phenylpropanoyl]amino}methyl)phosphonate], the EC50 – broadly, the concentration that produces a half-maximal response – is 16 nM. Further, the Emax under setting [1] amounted to 110%.
For `CC(C)C[C@H](NC(=O)Nc1ccc(Br)cc1)C(=O)NCS(=O)(=O)O` [{[(2S)-2-{[(4-Bromophenyl)carbamoyl]amino}-4-methylpentanoyl]amino}methanesulfonic acid], the EC50 under setting [2] was found to be 2.3 nM. In addition, under setting [1], the Emax amounted to 91%.
The matching figures for `CCOP(=O)(O)CNC(=O)[C@H](CC(C)C)NC(=O)Nc1ccc(C(F)(F)F)cc1` [Compound 20, Ethyl hydrogen [({(2S)-4-methyl-2-[({[4-(trifluoromethyl)phenyl]amino}carbonyl)amino]pentanoyl}amino)methyl]phosphonate]: 2 nM and 95%.
The matching figures for `CC(C)C[C@H](NC(=O)Nc1ccc(C(F)(F)F)cc1)C(=O)NCS(=O)(=O)O` [Compound 13, ({(2S)-4-methyl-2-[({[4-(trifluoromethyl)phenyl]amino}carbonyl)amino]pentanoyl}amino)methanesulfonic acid]: 1.6 nM and 100%.
Taken in the same sequence, the figures for `CCOP(=O)(CNC(=O)[C@@H](NC(=O)Nc1ccc(Br)cc1)[C@@H](C)CC)OCC` [Compound 5, Diethyl ({[(2S,3S)-2-({[(4-bromophenyl)amino]carbonyl}amino)-3-methylpentanoyl]amino}methyl)phosphonate] were 2.4 nM and 100%.
`CCOP(=O)(O)CNC(=O)[C@H](CC(C)C)NC(=O)Nc1ccc(Br)cc1` [Compound 15, Ethyl hydrogen({[(2S)-2-({[(4-bromophenyl)amino]carbonyl}amino)-4-methylpentanoyl]amino}methyl)phosphonate]: the EC50 came to 0.95 nM. Moreover, under setting [1], the Emax stood at 88%.
With `CCOP(=O)(CNC(=O)[C@H](CC(C)C)NC(=O)Nc1ccc(Br)cc1)OCC` [Compound 1, Diethyl({[(2S)-2-({[(4-bromophenyl)amino]carbonyl}amino)-4-methylpentanoyl]amino}methyl)phosphonate], the EC50 under setting [2] was determined as 0.59 nM. Also, under setting [1], the Emax was found to be 100%.
Take `CCOP(=O)(O)CNC(=O)[C@H](CC(C)C)NC(=O)Nc1ccc(S(C)(=O)=O)cc1` [Compound 21, ethyl hydrogen [({(2S)-4-methyl-2-[({[4-(methylsulfonyl)phenyl]amino}carbonyl)amino]pentanoyl}amino)methyl]phosphonate]: under setting [2], the EC50 was 133 nM. Further, the Emax under setting [1] is 99%.
The matching figures for `CCOP(=O)(CNC(=O)[C@H](Cc1ccccc1)NC(=O)Nc1ccc(Br)cc1)OCC` [Compound 7, Diethyl ({[(2S)-2-({[(4-bromophenyl)amino]carbonyl}amino)-3-phenylpropanoyl]amino}methyl)phosphonate]: 20 nM and 98%.
Take `CC(C)C[C@H](NC(=O)Nc1ccc(Br)cc1)C(=O)NCc1cc(O)no1` [Compound 4, (2S)-2-({[(4-Bromophenyl)amino]carbonyl}amino)-N-[(3-hydroxyisoxazol-5-yl)methyl]-4-methylpentanamide]: under setting [2], the EC50 was determined as 12 nM. Under setting [1], the Emax turned out to be 100%.
The matching figures for `CC(C)C[C@H](NC(=O)Nc1ccc(Br)cc1)C(=O)NCCc1nnn[nH]1` [Compound 3, (2S)-2-({[(4-Bromophenyl)amino]carbonyl}amino)-4-methyl-N-[2-(1H-tetrazol-5-yl)ethyl]pentanamide]: 47.9 nM and 100%.
In the case of `CCC[C@H](NC(=O)Nc1ccc(Br)cc1)C(=O)NCP(=O)(OC(C)C)OC(C)C` [Compound 9, Diisopropyl ({[(2S)-2-({[(4-bromophenyl)amino]carbonyl}amino)pentanoyl]amino}methyl)phosphonate], the EC50 under setting [2] was 0.8 nM. Moreover, under setting [1], the Emax was 94%.
The matching figures for `CC(C)C[C@H](NC(=O)Nc1ccc(Br)cc1)C(=O)NCP(=O)(OC(C)C)OC(C)C` [Compound 10, Diisopropyl ({[2-({[(4-bromophenyl)amino]carbonyl}amino)-4-methylpentanoyl]amino}methyl)phosphonate]: 4 nM and 100%.
With `CCC[C@H](NC(=O)Nc1ccc(Br)cc1)C(=O)NCP(=O)(O)O` [Compound 22, ({[(2S)-2-({[(4-bromophenyl)amino]carbonyl}amino)pentanoyl]amino}methyl)phosphonic acid], the EC50 under setting [2] was found to be 32 nM. Under setting [1], the Emax came out at 94%.
The matching figures for `CCOP(=O)(CNC(=O)[C@H](CC(C)C)NC(=O)Nc1ccc(C(F)(F)F)cc1)OCC` [Compound 11, Diethyl [({(2S)-4-methyl-2-[({[4-(trifluoromethyl)phenyl]amino}carbonyl)amino]pentanoyl}amino)methyl]phosphonate]: 8 nM and 100%.
As to `CCOP(=O)(CNC(=O)[C@H](CC(C)C)NC(=O)Nc1ccc(S(C)(=O)=O)cc1)OCC` [Compound 24, Diethyl[({(2S)-4-methyl-2-[({[4-(methylsulfonyl)phenyl]amino}carbonyl)amino]pentanoyl}amino)methyl]phosphonate], the EC50 under setting [2] is 45 nM. Also, the Emax under setting [1] came to 112%.
On to `CCCC(NC(=O)Nc1ccc(Br)cc1)C(=O)NCP(=O)(O)OC(C)C` (centres unmarked) [Compound 19, Iso-propyl hydrogen ({[2-({[(4-bromophenyl)amino]carbonyl}amino)pentanoyl]amino}methyl)phosphonate], for which, under setting [2], the EC50 stood at 1.87 nM. Besides, the Emax under setting [1] is 89%.
For `CCC[C@H](NC(=O)Nc1ccc(Br)cc1)C(=O)NCP(=O)(O)OCC` [Compound 17, Ethyl hydrogen ({[(2S)-2-({[(4-bromophenyl)amino]carbonyl}amino)pentanoyl]amino}methyl)phosphonate], the EC50 was found to be 1 nM. The Emax under setting [1] is 94%.
In the case of `CC(C)C[C@H](NC(=O)Nc1ccc(Br)cc1)C(=O)NCc1nnn[nH]1` [Compound 2, (2S)-2-({[(4-Bromophenyl)amino]carbonyl}amino)-4-methyl-N-(1H-tetrazol-5-ylmethyl)pentanamide], the EC50 under setting [2] was 2.3 nM. Further, the Emax under setting [1] was 81%.
Taken in the same sequence, the figures for `CC(C)C[C@H](NC(=O)Nc1ccc(C(F)(F)F)cc1)C(=O)NCc1nnn[nH]1` [Compound 12, (2S)-4-methyl-N-(1H-tetrazol-5-ylmethyl)-2-[({[4-(trifluoromethyl)phenyl]amino}carbonyl)amino]pentanamide] were 4 nM and 91%.
On to `CCOP(=O)(O)CNC(=O)[C@@H](NC(=O)Nc1ccc(Br)cc1)[C@@H](C)CC` [Compound 16, Ethyl hydrogen ({[(2S,3S)-2-({[(4-bromophenyl)amino]carbonyl}amino)-3-methylpentanoyl]amino}methyl)phosphonate], for which, under setting [2], the EC50 is 3.2 nM. Moreover, under setting [1], the Emax came out at 88%.
Taken in the same sequence, the figures for `CCC[C@H](NC(=O)Nc1ccc(Br)cc1)C(=O)NCP(=O)(OCC)OCC` [Compound 6, Diethyl ({[(2S)-2-({[(4-bromophenyl)amino]carbonyl}amino)pentanoyl]amino}methyl)phosphonate] were 0.29 nM and 94%.
`CCOP(=O)(CNC(=O)[C@H](CC(C)C)NC(=O)Nc1ccc(SC)cc1)OCC` [Compound 14, Diethyl [({(2S)-4-methyl-2-[({[4-(methylthio)phenyl]amino}carbonyl)amino]pentanoyl}amino)methyl]phosphonate]: the EC50 under setting [2] turned out to be 2.1 nM. Besides, the Emax under setting [1] was 90%.
Taken in the same sequence, the figures for `CCOP(=O)(CCNC(=O)[C@H](CC(C)C)NC(=O)Nc1ccc(Br)cc1)OCC` [Compound 8, Diethyl (2-{[(2S)-2-({[(4-bromophenyl)amino]carbonyl}amino)-4-methylpentanoyl]amino}ethyl)phosphonate] were 1.8 nM and 100%.
Regarding `CC(C)C[C@H](NC(=O)Nc1ccc(C(F)(F)F)cc1)C(=O)NCP(=O)(O)O` [Compound 23, [({(2S)-4-methyl-2-[({[4-(trifluoromethyl)phenyl]amino}carbonyl)amino]pentanoyl}amino)methyl]phosphonic acid], the EC50 under setting [2] amounted to 64 nM. Moreover, the Emax under setting [1] was determined as 102%.

These data come from patent publication US9670150B2, “(2-ureidoacetamido)alkyl derivatives as formyl peptide receptor 2 modulators” (Allergan, Inc., priority 2012, dated 2017).
